Source: patent US7598377B2, “Inhibition of phosphoinositide 3-kinase β” (AstraZeneca AB, priority 2002, dated 2009)
Read-outs that look alike come from different tables or passages of the source.

Tests used:
rat tail bleeding time = test: Tail bleeding studies in rats; type: in vivo
Description: Rats were anaesthetised with halothane in room air supplemented with O2. Tail bleeding time was measured 15 min before drug administration (−15), and 5 and 30 min after administration. For experiments involving pretreatment with aspirin and clopidogrel, tail bleeding time was also measured before the first gavage dose at −25 h. Incisions 5 mm long and 1 mm deep were made in the tail at each time point and bleeding was monitored every 30 sec until it had ceased (=tail bleeding time).

Fyn = Fyn (Homo sapiens, UniProt P06241); test: Tyrosine kinase assay by MDS Pharma Services (Panlabs); type: biochemical
Fyn, sequence (P06241 whole entry, species assumed): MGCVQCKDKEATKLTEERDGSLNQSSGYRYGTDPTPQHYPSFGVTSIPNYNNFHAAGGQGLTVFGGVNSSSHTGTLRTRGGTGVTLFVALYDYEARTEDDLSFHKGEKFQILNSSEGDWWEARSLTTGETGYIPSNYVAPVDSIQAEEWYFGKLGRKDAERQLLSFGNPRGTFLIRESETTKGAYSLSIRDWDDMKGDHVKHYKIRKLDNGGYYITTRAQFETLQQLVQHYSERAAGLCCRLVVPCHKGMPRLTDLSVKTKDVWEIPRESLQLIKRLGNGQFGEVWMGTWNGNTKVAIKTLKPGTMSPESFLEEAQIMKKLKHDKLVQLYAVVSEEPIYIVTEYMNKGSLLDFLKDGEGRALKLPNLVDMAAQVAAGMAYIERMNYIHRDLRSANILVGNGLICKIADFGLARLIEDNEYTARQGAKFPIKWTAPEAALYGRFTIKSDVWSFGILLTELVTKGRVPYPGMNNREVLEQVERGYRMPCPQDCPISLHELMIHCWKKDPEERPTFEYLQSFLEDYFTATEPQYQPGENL

[1] = tested on: carotid artery occlusive thrombus formation in rabbits; test: Modified Folts model in rabbits; type: in vivo, New Zealand White rabbits
Description: (§1) Studies were approved by the University of Melbourne Animal Ethics Committee in accordance with the guidelines of the National Health & Medical Research Council of Australia. Anaesthesia was induced in Sprague-Dawley rats (260-400 g) with sodium pentobarbitone (Nembutal; 60 mg/kg i.p.; Merial Australia Pty. Ltd., Sydney, NSW, Australia), and in New Zealand White rabbits (2-3 kg) with pentobarbitone (15 mg/kg i.v.) and fentanyl (6 μg/kg i.v.; David Bull Laboratories, Mulgrave, VIC, Australia). Animals were mechanically ventilated (Ugo Basile ventilator, Comerio, VA, Italy) with room air supplemented with O2. Body temperature was maintained throughout the experiment. Arterial blood pressure was measured via a femoral artery catheter connected to a pressure transducer (Model 1050.1, AD Instruments, Sydney, NSW) and a blood flow probe (1 mm i.d. for rats & 2.5 mm i.d. for rabbits; flowmeter […], Transonic Systems Inc., Ithaca, N.Y., USA) was placed around each (control and test) carotid artery; all parameters were recorded on a PowerLab data acquisition system (8SP; AD Instruments). A silk suture was tied loosely around 1 artery, distal to the flow probe, for subsequent stenosis. […] Carotid blood flow was monitored until it reached 0 ml/min, indicating a clot had formed at the site of stenosis. […] Again, carotid blood flow was monitored until it reached 0 ml/min, and the time recorded. […]

Casein Kinase 2 = Casein Kinase 2 (Homo sapiens, UniProt P68400); test: Ser/Thr kinase assay by MDS Pharma Services (Panlabs); type: biochemical
Casein Kinase 2, sequence (P68400 whole entry): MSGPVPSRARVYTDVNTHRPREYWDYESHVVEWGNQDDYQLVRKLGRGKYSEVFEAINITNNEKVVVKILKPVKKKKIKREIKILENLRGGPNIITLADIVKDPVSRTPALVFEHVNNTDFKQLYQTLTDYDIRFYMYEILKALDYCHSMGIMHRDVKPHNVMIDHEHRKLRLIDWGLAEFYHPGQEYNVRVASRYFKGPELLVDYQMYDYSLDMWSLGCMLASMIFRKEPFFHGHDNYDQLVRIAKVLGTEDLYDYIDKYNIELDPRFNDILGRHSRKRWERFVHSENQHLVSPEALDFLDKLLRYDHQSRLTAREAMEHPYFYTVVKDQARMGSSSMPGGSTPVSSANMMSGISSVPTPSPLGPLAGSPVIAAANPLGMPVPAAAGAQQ

EGF Receptor = EGF Receptor (Homo sapiens, UniProt P00533); test: Tyrosine kinase assay by MDS Pharma Services (Panlabs); type: biochemical
PKA Non-selective = test: Ser/Thr kinase assay by MDS Pharma Services (Panlabs); type: biochemical
HER2 Receptor = HER2 Receptor (Homo sapiens, UniProt P04626); test: Tyrosine kinase assay by MDS Pharma Services (Panlabs); type: biochemical
HER2 Receptor, sequence (P04626 23-1255): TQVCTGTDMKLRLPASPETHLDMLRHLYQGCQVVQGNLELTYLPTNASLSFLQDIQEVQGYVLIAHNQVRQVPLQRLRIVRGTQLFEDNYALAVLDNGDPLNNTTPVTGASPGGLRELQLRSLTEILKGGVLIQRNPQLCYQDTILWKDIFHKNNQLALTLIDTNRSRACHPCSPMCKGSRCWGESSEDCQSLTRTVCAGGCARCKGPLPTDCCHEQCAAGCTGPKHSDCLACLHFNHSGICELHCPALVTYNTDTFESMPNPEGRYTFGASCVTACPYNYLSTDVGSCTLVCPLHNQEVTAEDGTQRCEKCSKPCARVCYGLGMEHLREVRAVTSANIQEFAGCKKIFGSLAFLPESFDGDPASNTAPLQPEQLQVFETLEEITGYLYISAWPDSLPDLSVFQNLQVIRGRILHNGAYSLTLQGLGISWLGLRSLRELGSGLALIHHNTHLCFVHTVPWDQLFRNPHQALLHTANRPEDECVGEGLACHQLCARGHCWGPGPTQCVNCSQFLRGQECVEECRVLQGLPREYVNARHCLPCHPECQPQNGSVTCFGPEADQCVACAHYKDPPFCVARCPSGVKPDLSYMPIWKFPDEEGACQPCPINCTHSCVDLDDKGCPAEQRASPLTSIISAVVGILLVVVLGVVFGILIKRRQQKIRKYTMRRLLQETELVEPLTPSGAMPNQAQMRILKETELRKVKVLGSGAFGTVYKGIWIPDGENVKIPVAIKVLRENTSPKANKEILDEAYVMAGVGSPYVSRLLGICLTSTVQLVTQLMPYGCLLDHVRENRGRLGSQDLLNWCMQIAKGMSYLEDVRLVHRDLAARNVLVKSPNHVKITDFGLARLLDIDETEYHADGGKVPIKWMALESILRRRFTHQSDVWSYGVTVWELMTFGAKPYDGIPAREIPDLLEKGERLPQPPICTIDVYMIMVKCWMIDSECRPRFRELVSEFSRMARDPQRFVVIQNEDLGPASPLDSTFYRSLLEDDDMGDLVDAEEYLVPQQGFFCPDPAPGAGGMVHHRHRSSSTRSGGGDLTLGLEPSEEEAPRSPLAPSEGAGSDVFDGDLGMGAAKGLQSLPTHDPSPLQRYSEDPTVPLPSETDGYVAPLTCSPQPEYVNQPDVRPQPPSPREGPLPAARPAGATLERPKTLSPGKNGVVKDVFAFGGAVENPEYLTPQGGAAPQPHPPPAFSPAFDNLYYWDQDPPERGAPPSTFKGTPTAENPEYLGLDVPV

washed platelets = test: Shear-induced platelet aggregation (cone & plate device, single platelet count); type: cell-based; conditions: 5 min, vWf 10 μg/ml, 5000 s^−1 for 5 min, read-out: inhibition of shear induced platelet aggregation, IC50
Text: Platelet samples were aspirated and the level of platelet aggregation determined by analyzing the number of unincorporated single platelets using a […] hematology analyzer. All data were normalized to control experiments and expressed as the proportional increase relative to control samples.

CaMK = test: Ser/Thr kinase assay by MDS Pharma Services (Panlabs); type: biochemical
p38α = p38α (Homo sapiens, UniProt Q16539); test: as above; type: biochemical
p38α, sequence (Q16539 whole entry): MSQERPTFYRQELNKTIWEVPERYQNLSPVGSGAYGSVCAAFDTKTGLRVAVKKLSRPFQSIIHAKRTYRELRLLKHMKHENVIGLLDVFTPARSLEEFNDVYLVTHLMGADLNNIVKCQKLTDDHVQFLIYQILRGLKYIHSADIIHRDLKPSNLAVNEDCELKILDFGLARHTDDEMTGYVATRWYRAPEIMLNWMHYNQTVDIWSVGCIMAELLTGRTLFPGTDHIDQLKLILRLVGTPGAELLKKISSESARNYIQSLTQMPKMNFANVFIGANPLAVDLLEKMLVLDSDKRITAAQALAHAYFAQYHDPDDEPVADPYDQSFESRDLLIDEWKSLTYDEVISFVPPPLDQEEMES

p110γ-PI3K = p110γ-PI3K (Homo sapiens, UniProt P48736); test: In vitro enzyme assay, p110γ recombinant protein (Biological Example 1); type: biochemical
p110γ-PI3K, sequence (P48736 whole entry, canonical isoform): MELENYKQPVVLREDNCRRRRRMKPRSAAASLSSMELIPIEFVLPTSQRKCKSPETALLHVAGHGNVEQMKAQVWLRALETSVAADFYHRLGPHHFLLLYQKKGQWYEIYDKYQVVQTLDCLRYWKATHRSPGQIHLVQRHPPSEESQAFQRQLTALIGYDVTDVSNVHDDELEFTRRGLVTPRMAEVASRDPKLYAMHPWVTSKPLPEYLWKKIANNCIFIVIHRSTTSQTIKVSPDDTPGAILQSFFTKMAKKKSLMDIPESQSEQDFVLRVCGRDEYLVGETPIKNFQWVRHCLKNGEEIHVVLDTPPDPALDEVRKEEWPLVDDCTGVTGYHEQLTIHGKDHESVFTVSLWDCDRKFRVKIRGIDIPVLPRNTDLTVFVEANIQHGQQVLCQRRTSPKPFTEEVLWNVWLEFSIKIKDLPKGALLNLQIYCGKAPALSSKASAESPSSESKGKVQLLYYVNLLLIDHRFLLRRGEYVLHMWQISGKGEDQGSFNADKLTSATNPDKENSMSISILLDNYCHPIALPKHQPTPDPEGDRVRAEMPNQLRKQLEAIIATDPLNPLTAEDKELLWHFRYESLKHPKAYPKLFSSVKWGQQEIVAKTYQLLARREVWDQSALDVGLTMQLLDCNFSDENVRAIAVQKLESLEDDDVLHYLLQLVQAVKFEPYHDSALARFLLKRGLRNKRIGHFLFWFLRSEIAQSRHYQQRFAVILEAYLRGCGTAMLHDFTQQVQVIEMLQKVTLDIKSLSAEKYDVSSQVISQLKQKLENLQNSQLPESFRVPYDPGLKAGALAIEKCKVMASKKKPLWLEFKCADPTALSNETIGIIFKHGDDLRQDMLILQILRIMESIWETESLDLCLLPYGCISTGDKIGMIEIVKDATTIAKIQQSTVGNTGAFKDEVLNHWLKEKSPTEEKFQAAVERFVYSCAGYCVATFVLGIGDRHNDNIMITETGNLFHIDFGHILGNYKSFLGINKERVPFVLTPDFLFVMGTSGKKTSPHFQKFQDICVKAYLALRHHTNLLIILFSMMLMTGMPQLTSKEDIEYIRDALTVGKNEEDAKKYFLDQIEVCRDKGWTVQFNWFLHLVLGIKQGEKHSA
Text: Reactions were terminated and lipid products analysed as described above for the other PI 3-kinase isoforms assays.

p70^S6 = p70^S6 (Homo sapiens, UniProt P23443); test: Ser/Thr kinase assay by MDS Pharma Services (Panlabs); type: biochemical
p70^S6, sequence (P23443 24-525 limits assumed): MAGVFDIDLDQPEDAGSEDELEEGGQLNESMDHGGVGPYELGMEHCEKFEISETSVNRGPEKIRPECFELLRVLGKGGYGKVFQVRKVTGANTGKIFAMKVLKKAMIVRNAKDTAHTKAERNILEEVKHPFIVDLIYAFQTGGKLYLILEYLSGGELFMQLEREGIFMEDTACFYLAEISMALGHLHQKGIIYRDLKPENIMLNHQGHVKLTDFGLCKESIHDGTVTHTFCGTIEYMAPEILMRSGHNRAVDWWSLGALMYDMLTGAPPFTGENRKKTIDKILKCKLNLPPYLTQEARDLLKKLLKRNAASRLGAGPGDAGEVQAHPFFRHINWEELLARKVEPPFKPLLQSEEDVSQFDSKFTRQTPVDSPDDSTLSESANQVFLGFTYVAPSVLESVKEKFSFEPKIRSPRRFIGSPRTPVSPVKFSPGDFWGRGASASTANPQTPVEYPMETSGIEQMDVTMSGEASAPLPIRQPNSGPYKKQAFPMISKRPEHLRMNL

[2] = tested on: carotid artery occlusive thrombus formation in rats; test: Modified Folts model in rats; type: in vivo, Sprague-Dawley rats
Description: as §1

ERK1 = ERK1 (Homo sapiens, UniProt P27361); test: Ser/Thr kinase assay by MDS Pharma Services (Panlabs); type: biochemical
ERK1, sequence (P27361 whole entry, species assumed): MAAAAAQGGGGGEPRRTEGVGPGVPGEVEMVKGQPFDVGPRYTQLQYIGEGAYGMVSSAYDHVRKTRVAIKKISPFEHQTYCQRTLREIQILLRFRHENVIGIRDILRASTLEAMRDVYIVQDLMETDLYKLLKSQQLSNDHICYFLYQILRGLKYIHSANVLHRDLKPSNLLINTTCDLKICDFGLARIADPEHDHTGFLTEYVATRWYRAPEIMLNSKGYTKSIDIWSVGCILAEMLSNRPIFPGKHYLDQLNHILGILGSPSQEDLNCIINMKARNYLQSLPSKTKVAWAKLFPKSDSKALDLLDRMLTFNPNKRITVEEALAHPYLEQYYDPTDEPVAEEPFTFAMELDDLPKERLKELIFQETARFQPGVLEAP

PKC Non-selective = test: as above; type: biochemical
p110δ-PI3K = molecular target: T1, p110δ-PI3K (Homo sapiens, UniProt O00329); test: In vitro enzyme assay, p110δ immunoprecipitated from platelet lysate (Biological Example 1); type: biochemical; conditions: read-out: IC50 (μM), p110δ-PI3K
T1 construct: from tissue; host or cells: washed platelets (lysate, immunoprecipitated with anti-p110δ antibody)
Description: For each immunoprecipitation, 1 mg of lysate was incubated with an anti-p110α (1 μg), anti-p110β (1 μg), anti-p110δ (1 μg) or anti-PI4 kinase antibody (2-5 μg) and 50 μl of a 50% slurry of protein A beads overnight at 4° C. […] For PI4 kinase assays, protein A beads-immune complexes were also washed twice with lysis buffer, prior to two washes with 1× PI4 kinase assay buffer (20 mM Hepes, pH 7.5, 10 mM MgCl2, 0.3% Triton X-100) and the addition of other assay constituents, as described above. All reactions were terminated by the addition of 100 μl 1 M HCl, 200 μl choloroform/methanol (1:1) and 500 μl 2 M KCl and lipids extracted by centrifugation at 15,000×g for 2 minutes. The production of PI3 or PI4 kinase lipid products, PtdIns(3)P and PtdIns(4)P, were confirmed through TLC analysis. The lipid spots were then removed from the TLC plate and the level of radioactivity quantified to accurately determine the level of PtdIns(3)P/PtdIns(4)P production.

Cdk2/cyclin A = Cdk2/cyclin A (Homo sapiens, UniProt P24941); test: Ser/Thr kinase assay by MDS Pharma Services (Panlabs); type: biochemical

bleeding time (rat tail bleeding time; TGX-221 2 mg/kg i.v. in combination with either clopidogrel or aspirin): did not affect bleeding time | prolonged bleeding time caused by co-administered agents (rat tail bleeding time; TGX-221 2 mg/kg i.v. with aspirin 200 mg/kg p.o.+heparin 100 U/kg i.v.): did not exacerbate | prolonged bleeding time caused by co-administered agents (rat tail bleeding time; TGX-221 2 mg/kg i.v. with clopidogrel 10 mg/kg p.o.+heparin 100 U/kg i.v.): did not exacerbate | rat tail bleeding time (rat tail bleeding time; TGX-221 20 mg/kg i.v. alone): unaffected | rat tail bleeding time (rat tail bleeding time; TGX-221 20 mg/kg i.v. with heparin 100 U/kg i.v.): unaffected | bleeding time (rat tail bleeding time; administered at >20 fold the minimum therapeutic concentration): did not increase bleeding time | IC50 (Fyn): > 10 µM | IC50 (Casein Kinase 2): > 10 µM | IC50 (EGF Receptor): > 10 µM | IC50 (PKA Non-selective): > 10 µM | IC50 (HER2 Receptor): > 10 µM | IC50 (washed platelets): 0.05 to 0.1 µM | IC50 (CaMK): > 10 µM | IC50 (p38α): > 10 µM | IC50 (p110γ-PI3K; Table I, read-out: inhibitory concentration, gamma): > 5 µM | IC50 (p110γ-PI3K; read-out: IC50 (μM), p110γ-PI3K): > 10 µM | IC50 (p70^S6): > 10 µM | IC50 (ERK1): > 10 µM | IC50 (PKC Non-selective): > 10 µM | IC50 (p110δ-PI3K): 0.1 µM | IC50 (Cdk2/cyclin A): > 10 µM
SMILES: Cc1cc(C(C)Nc2ccccc2)c2nc(N3CCOCC3)cc(=O)n2c1 (racemic) [TGX-221, (±)-7-methyl-2-morpholin-4-yl-9-(1-phenylaminoethyl)-pyrido[1,2-a]pyrimidin-4-one]
normal haemostasis as assessed by tail or ear bleeding times (rat tail bleeding time; in words): did not adversely impact | animals in which occlusive thrombus formation was immediately abolished ([1]; 2 mg/kg i.v. bolus): 100% | occlusive thrombus formation ([1]; 2 mg/kg, in words): completely prevented | animals in which occlusive thrombus formation was immediately abolished ([2]; 2 mg/kg i.v. bolus): 100% | occlusive thrombus formation ([2]; 2 mg/kg, in words): completely prevented
